This passage reports IC50 results from article PMC11277439, “The role of lysosomal phospholipase A2 in the catabolism of bis(monoacylglycerol)phosphate and association with phospholipidosis” (Journal of Lipid Research, 2024).

The assay has as its target T1, recombinant human LPLA2 (hLPLA2) (Homo sapiens, UniProt Q8NCC3).
T1 construct: gene PLA2G15; recombinant human enzyme from Proteos
T1 sequence (Q8NCC3 34-412): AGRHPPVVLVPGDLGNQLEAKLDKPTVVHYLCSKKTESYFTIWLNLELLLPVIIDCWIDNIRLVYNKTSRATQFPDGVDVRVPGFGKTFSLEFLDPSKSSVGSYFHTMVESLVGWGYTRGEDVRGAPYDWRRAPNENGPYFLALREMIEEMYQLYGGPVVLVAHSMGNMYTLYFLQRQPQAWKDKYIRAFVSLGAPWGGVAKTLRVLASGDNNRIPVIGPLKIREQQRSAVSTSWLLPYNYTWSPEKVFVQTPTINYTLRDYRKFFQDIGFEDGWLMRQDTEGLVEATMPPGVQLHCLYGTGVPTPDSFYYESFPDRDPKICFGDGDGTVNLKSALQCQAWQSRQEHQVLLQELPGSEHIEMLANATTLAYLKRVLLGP
In words: oleic acid release from liposomes, HPTLC. In kind it is biochemical. Conditions: DODPC/S,S-(3,3′,C18:1)-BMP liposomes (2.3:1), 50 mM sodium acetate pH 4.5, 37°C, 5 min pre-incubation of drug with liposomes; read-out: Lipase Inhibition IC50 μM (BMP)^g. An excerpt: oleic acid release from liposomes, HPTLC on recombinant human LPLA2 (hLPLA2)
In the case of `CC[C@H](NC(=O)c1c(C)c(-c2ccccc2)nc2ccccc12)c1ccccc1` [SB222200, 3-methyl-2-phenyl-N-[(1S)-1-phenylpropyl]quinoline-4-carboxamide], the IC50 was determined as 28.7 µM.
In the case of `CCCCc1oc2ccccc2c1C(=O)c1cc(I)c(OCCN(CC)CC)c(I)c1` [amiodarone, (2-butyl-1-benzofuran-3-yl)-[4-[2-(diethylamino)ethoxy]-3,5-diiodophenyl]methanone], the IC50 turned out to be 18 µM.
On to `CCOC(=O)C1=C(COCCN)NC(C)=C(C(=O)OC)C1c1ccccc1Cl` (stereo not drawn) [amlodipine, 3-O-ethyl 5-O-methyl 2-(2-aminoethoxymethyl)-4-(2-chlorophenyl)-6-methyl-1,4-dihydropyridine-3,5-dicarboxylate], for which the IC50 came to 24 µM.
With `CC(C)(C)c1ccc(CN2CCN(C(c3ccccc3)c3ccc(Cl)cc3)CC2)cc1` (stereo not drawn) [buclizine, 1-[(4-tert-butylphenyl)methyl]-4-[(4-chlorophenyl)-phenylmethyl]piperazine] the figure was 16 µM; with `COc1ccccc1OCCNCC(O)COc1cccc2[nH]c3ccccc3c12` (stereo not drawn) [carvedilol, 1-(9H-carbazol-4-yloxy)-3-[2-(2-methoxyphenoxy)ethylamino]propan-2-ol], 34.7 µM; with `CN(C)CCCN1c2ccccc2Sc2ccc(Cl)cc21` [chlorpromazine, 3-(2-chlorophenothiazin-10-yl)-N,N-dimethylpropan-1-amine], 9.7 µM.
With `CN(C)CCC=C1c2ccccc2C=Cc2ccccc21` [cyclobenzaprine, N,N-dimethyl-3-(2-tricyclo[9.4.0.03,8]pentadeca-1(15),3,5,7,9,11,13-heptaenylidene)propan-1-amine] the figure was 13.2 µM; with `CCC(=O)O[C@@H](O[P@](=O)(CCCCc1ccccc1)CC(=O)N1C[C@H](C2CCCCC2)C[C@H]1C(=O)O)C(C)C` [fosinopril, (2S,4S)-4-cyclohexyl-1-[2-[(2-methyl-1-propanoyloxypropoxy)-(4-phenylbutyl)phosphoryl]acetyl]pyrrolidine-2-carboxylic acid], 0.849 µM; with `O=C(O)[C@@H]1C[C@@H](C2CCCCC2)CN1C(=O)CP(=O)(O)CCCCc1ccccc1` [fosinoprilat, (2S,4S)-4-cyclohexyl-1-{2-[hydroxy(4-phenylbutyl)phosphoryl]acetyl}pyrrolidine-2-carboxylic acid], 39.9 µM.
In the case of `C[C@]12CC[C@@H]3c4ccc(O)cc4C[C@@H](CCCCCCCCC[S+]([O-])CCCC(F)(F)C(F)(F)F)[C@H]3[C@@H]1CC[C@@H]2O` (stereo partly drawn) [fulvestrant, (7R,8R,9S,13S,14S,17S)-13-methyl-7-[9-(4,4,5,5,5-pentafluoropentylsulfinyl)nonyl]-6,7,8,9,11,12,14,15,16,17-decahydrocyclopenta[a]phenanthrene-3,17-diol], the IC50 is 18.5 µM.
With `CN(CCCN1c2ccccc2CCc2ccccc21)CC(=O)c1ccc(Cl)cc1` [lofrepramine, 1-(4-chlorophenyl)-2-[3-(5,6-dihydrobenzo[b][1]benzazepin-11-yl)propyl-methylamino]ethanone], the IC50 turned out to be 41.7 µM.
With `CCOC(=O)N1CCC(=C2c3ccc(Cl)cc3CCc3cccnc32)CC1` [loratadine, ethyl 4-{13-chloro-4-azatricyclo [9.4.0.03, 8]pentadeca1(11),3(8), 4,6,12,14-hexaen-2-ylidene}piperidine-1-carboxylate] the figure was 21.8 µM; with `C1CCC(C(CC2CCCCN2)C2CCCCC2)CC1` (stereo not drawn) [perhexiline, 2-(2,2-dicyclohexylethyl) piperidine], 31.1 µM.
Take `CCN(CC)C(C)CN1c2ccccc2Sc2ccccc21` (stereo not drawn) [profenamine, N,N-diethyl-1-phenothiazin-10-ylpropan-2-amine]: the IC50 stood at 40.9 µM.
As for `CC(C)NCC(O)COc1cccc2ccccc12` (stereo not drawn) [propranolol, 1-(naphthalen-1-yloxy)-3-[(propan-2-yl)amino] propan-2-ol], the IC50 came to 45.8 µM.
The result for `O=C(c1ccc(OCCN2CCCCC2)cc1)c1c(-c2ccc(O)cc2)sc2cc(O)ccc12` [raloxifene, [6-hydroxy-2-(4-hydroxyphenyl)-1-benzothiophen-3-yl]-[4-(2-piperidin-1-ylethoxy)phenyl]methanone] reads 50.6 µM; that for `NCC[C@H](Oc1ccc(C(F)(F)F)cc1)c1ccccc1` [seproxitine, (3S)-3-phenyl-3-[4-(trifluoromethyl)phenoxy]propan-1-amine], 20.9 µM; that for `CC/C(=C(\c1ccccc1)c1ccc(OCCN(C)C)cc1)c1ccccc1` [tamoxifen], 20.1 µM.
